{"source": "patent US10375956B2", "about": "“Herbicidally active 2-(substituted-phenyl)-cyclopentane-1,3-dione compounds and derivatives thereof” (Syngenta Limited, priority 2013, dated 2019)", "experiment_in_all_cases": "Test 2 glasshouse assay (IF50 formulation, X-77), post-emergence herbicidal activity", "assay_type_in_all_cases": "in vivo", "key": {"[1]": {"tested_on": "Beta vulgaris (BEAVA, sugarbeet)", "conditions": "360 h, 15 DAA, visual score, read-out: Post-emergence herbicidal activity (percentage phytotoxicity) BEAVA", "procedure,_shortened": "(§1)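 Plants grown ~12 days (range 10-13) in glasshouse (cool species 20/16° C., warm 24/18° C. day/night; 16 h light; 65% humidity), then sprayed post-emergence with IF50 formulation in aqueous 0.2% v/v X-77. Visual percentage phytotoxicity scored 15 days after application (100% = total damage, 0% = none).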"}, "[2]": {"tested_on": "Glycine max (GLXMA, soybean)", "conditions": "360 h, 15 DAA, visual score, read-out: Post-emergence herbicidal activity (percentage phytotoxicity) GLXMA", "procedure,_shortened": "as §1"}, "[3]": {"tested_on": "Brassica napus (BRSNN, rape)", "conditions": "360 h, 15 DAA, visual score, read-out: Post-emergence herbicidal activity (percentage phytotoxicity) BRSNN", "procedure,_shortened": "as §1"}, "[4]": {"tested_on": "Triticum aestivum (TRZAW, winter wheat)", "conditions": "360 h, 15 DAA, visual score, read-out: Post-emergence herbicidal activity (percentage phytotoxicity) TRZAW", "procedure,_shortened": "as §1"}, "Avena fatua (AVEFA)": {"tested_on": "Avena fatua (AVEFA)", "conditions": "360 h, 15 DAA, visual score, read-out: Post-emergence herbicidal activity (percentage phytotoxicity) AVEFA", "procedure,_shortened": "(§2)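 Plants in soil pots were sprayed 1 day (pre-emergence) or ~12 days (post-emergence) after sowing with IF50 formulation diluted in 0.2% v/v X-77. Cool species were grown at 20/16 °C day/night, 16 h light, 65% humidity. Visual % phytotoxicity was scored at 20DAA (pre) or 15DAA (post).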"}, "[5]": {"tested_on": "Alopecurus myosuroides (ALOMY)", "conditions": "360 h, 15 DAA, visual score, read-out: Post-emergence herbicidal activity (percentage phytotoxicity) ALOMY", "procedure,_shortened": "as §2"}, "Lolium perenne (LOLPE)": {"tested_on": "Lolium perenne (LOLPE)", "conditions": "360 h, 15 DAA, visual score, read-out: Post-emergence herbicidal activity (percentage phytotoxicity) LOLPE", "procedure,_shortened": "as §2"}, "Setaria faberi (SETFA)": {"tested_on": "Setaria faberi (SETFA)", "conditions": "360 h, 15 DAA, visual score, read-out: Post-emergence herbicidal activity (percentage phytotoxicity) SETFA", "procedure,_shortened": "(§3)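 Sow in soil → 1 d (pre) or ~12 d (post) at 24/18 °C, 16 h light, 65% RH → spray IF50 (50 g/L stock) in 0.2% v/v X-77, concentration set by application rate → water twice daily → visual % phytotoxicity 20DAA (pre) or 15DAA (post).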"}, "[6]": {"tested_on": "Echinochloa crus-galli (ECHCG)", "conditions": "360 h, 15 DAA, visual score, read-out: Post-emergence herbicidal activity (percentage phytotoxicity) ECHCG", "procedure,_shortened": "as §3"}, "[7]": {"tested_on": "Digitaria sanguinalis (DIGSA)", "conditions": "360 h, 15 DAA, visual score, read-out: Post-emergence herbicidal activity (percentage phytotoxicity) DIGSA", "procedure,_shortened": "as §3"}, "[8]": {"tested_on": "Brachiaria plantaginea (BRAPL)", "conditions": "Urochloa plantaginea, 360 h, 15 DAA, visual score, read-out: Post-emergence herbicidal activity (percentage phytotoxicity) BRAPL", "procedure,_shortened": "as §3"}, "[9]": {"tested_on": "Sorghum vulgare Pers. (SORVU)", "conditions": "Sorghum bicolor, 360 h, 15 DAA, visual score, read-out: Post-emergence herbicidal activity (percentage phytotoxicity) SORVU", "procedure,_shortened": "as §3"}, "[10]": {"tested_on": "Panicum miliaceum (PANMI)", "conditions": "360 h, 15 DAA, visual score, read-out: Post-emergence herbicidal activity (percentage phytotoxicity) PANMI", "procedure,_shortened": "as §3"}}, "data": [{"smiles": "C#CCC1CC(OC(C)=O)=C(c2c(C)cc(-c3ccc(F)cc3)cc2C)C1=O", "note": "(centres unmarked) [Compound A45]", "values": [{"measurement": "plant injury at 30 g/ha", "setting": "[1]; application rate 30 g/ha", "result": 70, "unit": "%"}, {"measurement": "plant injury at 125 g/ha", "setting": "[1]; application rate 125 g/ha", "result": 70, "unit": "%"}, {"measurement": "plant injury at 30 g/ha", "setting": "[2]; application rate 30 g/ha", "result": 0, "unit": "%"}, {"measurement": "plant injury at 125 g/ha", "setting": "[2]; application rate 125 g/ha", "result": 10, "unit": "%"}, {"measurement": "plant injury at 30 g/ha", "setting": "[3]; application rate 30 g/ha", "result": 50, "unit": "%"}, {"measurement": "plant injury at 125 g/ha", "setting": "[3]; application rate 125 g/ha", "result": 80, "unit": "%"}, {"measurement": "plant injury at 30 g/ha", "setting": "[4]; application rate 30 g/ha", "result": 80, "unit": "%"}, {"measurement": "plant injury at 125 g/ha", "setting": "[4]; application rate 125 g/ha", "result": 80, "unit": "%"}, {"measurement": "pest or weed control at 30 g/ha", "setting": "Avena fatua (AVEFA); application rate 30 g/ha", "result": 70, "unit": "%"}, {"measurement": "pest or weed control at 125 g/ha", "setting": "Avena fatua (AVEFA); application rate 125 g/ha", "result": 90, "unit": "%"}, {"measurement": "pest or weed control at 30 g/ha", "setting": "[5]; application rate 30 g/ha", "result": 70, "unit": "%"}, {"measurement": "pest or weed control at 125 g/ha", "setting": "[5]; application rate 125 g/ha", "result": 90, "unit": "%"}, {"measurement": "pest or weed control at 30 g/ha", "setting": "Lolium perenne (LOLPE); application rate 30 g/ha", "result": 80, "unit": "%"}, {"measurement": "pest or weed control at 125 g/ha", "setting": "Lolium perenne (LOLPE); application rate 125 g/ha", "result": 100, "unit": "%"}, {"measurement": "pest or weed control at 30 g/ha", "setting": "Setaria faberi (SETFA); application rate 30 g/ha", "result": 90, "unit": "%"}, {"measurement": "pest or weed control at 125 g/ha", "setting": "Setaria faberi (SETFA); application rate 125 g/ha", "result": 100, "unit": "%"}, {"measurement": "pest or weed control at 30 g/ha", "setting": "[6]; application rate 30 g/ha", "result": 100, "unit": "%"}, {"measurement": "pest or weed control at 125 g/ha", "setting": "[6]; application rate 125 g/ha", "result": 100, "unit": "%"}, {"measurement": "pest or weed control at 30 g/ha", "setting": "[7]; application rate 30 g/ha", "result": 100, "unit": "%"}, {"measurement": "pest or weed control at 125 g/ha", "setting": "[7]; application rate 125 g/ha", "result": 100, "unit": "%"}, {"measurement": "pest or weed control at 30 g/ha", "setting": "[8]; application rate 30 g/ha", "result": 90, "unit": "%"}, {"measurement": "pest or weed control at 125 g/ha", "setting": "[8]; application rate 125 g/ha", "result": 100, "unit": "%"}, {"measurement": "pest or weed control at 30 g/ha", "setting": "[9]; application rate 30 g/ha", "result": 70, "unit": "%"}, {"measurement": "pest or weed control at 125 g/ha", "setting": "[9]; application rate 125 g/ha", "result": 100, "unit": "%"}, {"measurement": "pest or weed control at 30 g/ha", "setting": "[10]; application rate 30 g/ha", "result": 100, "unit": "%"}, {"measurement": "pest or weed control at 125 g/ha", "setting": "[10]; application rate 125 g/ha", "result": 100, "unit": "%"}]}]}
